The IC50 is the midpoint of a concentration-inhibition curve.

We go through six molecules from patent publication US9085606B2, “Beta amino acid derivatives as integrin antagonists” (Saint Louis University, priority 2012, dated 2015).

In test [1] the target is T1, Recombinant human integrin α5β1 (Homo sapiens, UniProt P05556+P08648).
T1 construct: purchased R&D Systems 3230-A5
Nature of the test: Solid Phase Receptor Assay for α5β1 Function. As to conditions: binding to fibronectin-coated plate; read-out: α5β1 SPRA IC50. How it is done: Solid Phase Receptor Assay for α5β1 Function.
Wells were washed 3 times with 150 μL TBS+ and 150 μl of blocking buffer (TBS+ with 1% bovine serum albumin, Sigma A7906) were added. The plate was incubated for 1 hr at 37° C. and then washed 3× with TBS+ buffer. […] Compounds were diluted 1:100 into the integrin solution and then 50 μL added to empty wells of the washed fibronectin-coated plate according to a standard template with each sample repeated in triplicate. After incubation for two hours at room temperature, the plate was washed 3× with 150 μL of TBS+ buffer. To each well, 50 μL of biotinylated anti-α5 antibody (R&D Systems, BAF1864) at 0.5 ug/mL in TBS+/0.1% BSA were added and the plate covered and incubated for 1 hr at room temperature. After washing the plate 3× with 150 μL of TBS+ buffer, 50 μL of streptavidin-conjugated horseradish peroxidase (R&D Systems, DY998) diluted in TBS+ blocking buffer were added to the wells and the plate incubated for 20 min at room temperature. The plate was washed 3× with TBS+ buffer followed by 50 μL of room temperature TMB substrate (Sigma, T444) added to each well and the plate incubated for 20 min at room temperature. The reaction was optionally stopped with 25 μL of Stop Solution (Sigma S5689). Plates were read by colorimetric detection at 650 nm wavelength using a Tecan Safire II plate reader.

The target in test [2] is T2, Recombinant human integrin αvβ6 (Homo sapiens, UniProt P06756+P18564).
T2 construct: purchased R&D Systems 3817-AV
T2 sequence (P06756 31-992 limits assumed): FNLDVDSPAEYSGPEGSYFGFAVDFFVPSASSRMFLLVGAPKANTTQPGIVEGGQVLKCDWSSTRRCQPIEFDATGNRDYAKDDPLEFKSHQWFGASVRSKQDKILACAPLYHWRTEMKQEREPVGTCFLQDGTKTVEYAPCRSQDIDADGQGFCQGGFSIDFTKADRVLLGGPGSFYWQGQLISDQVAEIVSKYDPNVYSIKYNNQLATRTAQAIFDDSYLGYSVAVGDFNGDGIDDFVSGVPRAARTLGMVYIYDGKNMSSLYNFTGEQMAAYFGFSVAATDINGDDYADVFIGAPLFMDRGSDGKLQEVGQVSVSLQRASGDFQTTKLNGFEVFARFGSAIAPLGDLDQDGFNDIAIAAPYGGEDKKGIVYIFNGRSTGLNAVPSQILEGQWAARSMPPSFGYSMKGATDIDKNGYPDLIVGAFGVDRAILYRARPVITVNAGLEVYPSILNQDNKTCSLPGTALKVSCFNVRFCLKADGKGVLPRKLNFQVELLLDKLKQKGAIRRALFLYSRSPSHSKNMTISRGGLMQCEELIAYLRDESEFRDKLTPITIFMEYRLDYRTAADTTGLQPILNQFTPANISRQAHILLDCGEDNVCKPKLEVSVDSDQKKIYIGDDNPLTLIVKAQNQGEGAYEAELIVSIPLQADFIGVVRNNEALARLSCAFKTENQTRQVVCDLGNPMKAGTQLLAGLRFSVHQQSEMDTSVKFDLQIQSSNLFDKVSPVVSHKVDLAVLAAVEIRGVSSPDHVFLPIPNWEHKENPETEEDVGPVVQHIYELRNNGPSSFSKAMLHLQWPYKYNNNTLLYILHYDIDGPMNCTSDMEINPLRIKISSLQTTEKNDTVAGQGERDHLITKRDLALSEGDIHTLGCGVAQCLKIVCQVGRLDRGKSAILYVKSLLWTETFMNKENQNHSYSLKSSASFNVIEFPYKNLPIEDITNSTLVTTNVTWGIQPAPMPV
T2 sequence (P18564 22-707 limits assumed): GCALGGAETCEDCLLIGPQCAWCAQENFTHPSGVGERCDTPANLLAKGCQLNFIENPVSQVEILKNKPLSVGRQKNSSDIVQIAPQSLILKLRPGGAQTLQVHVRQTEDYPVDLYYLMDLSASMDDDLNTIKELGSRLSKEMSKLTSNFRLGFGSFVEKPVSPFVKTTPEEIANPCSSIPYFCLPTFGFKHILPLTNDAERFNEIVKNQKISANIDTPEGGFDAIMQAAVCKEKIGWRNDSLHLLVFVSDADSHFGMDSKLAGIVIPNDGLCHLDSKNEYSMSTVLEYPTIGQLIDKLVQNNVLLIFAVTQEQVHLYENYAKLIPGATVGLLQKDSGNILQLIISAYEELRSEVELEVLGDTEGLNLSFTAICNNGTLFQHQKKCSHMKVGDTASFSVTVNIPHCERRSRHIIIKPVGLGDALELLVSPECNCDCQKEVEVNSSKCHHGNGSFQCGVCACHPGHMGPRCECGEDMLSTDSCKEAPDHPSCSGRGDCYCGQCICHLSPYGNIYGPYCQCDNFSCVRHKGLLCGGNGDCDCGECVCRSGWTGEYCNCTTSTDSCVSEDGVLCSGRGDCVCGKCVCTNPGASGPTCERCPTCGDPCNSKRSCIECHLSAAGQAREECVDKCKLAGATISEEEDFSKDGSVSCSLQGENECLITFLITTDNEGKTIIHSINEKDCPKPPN
As to the kind of experiment: Solid Phase Receptor Assay for αvβ6 Function. As to conditions: binding to LAP-coated plate; read-out: αvβ6 SPRA IC50. As to the method: Solid Phase Receptor Assay for αvβ6 Function.
(§1) Wells were washed 3 times with 150 μL TBS+, and 150 μL of blocking buffer (TBS+ with 1% bovine serum albumin, Sigma A7906) were added. The plate was incubated for 1 hr at 37° C., and then washed 3× with TBS+ buffer. […] Compounds were diluted 1:100 into the integrin solution and then 50 μL added to empty wells of the washed LAP-coated plate according to a standard template with each sample repeated in triplicate. After incubation for two hours at room temperature, the plate was washed 3× with 150 μL of TBS+ buffer. To each well, 50 μL of biotinylated anti-αv antibody (R&D Systems, BAF1219) at 0.5 μg/mL in TBS+/0.1% BSA were added and the plate was covered and incubated for 1 hr at room temperature. After washing the plate 3× with 150 μL of TBS+ buffer, 50 μL of streptavidin-conjugated horseradish peroxidase (R&D Systems, DY998) diluted in TBS+ blocking buffer were added to the wells and the plate incubated for 20 min at room temperature. The plate was washed 3× with TBS+ buffer followed by 50 μL of TMB substrate (Sigma T4444) added to each well and the plate incubated for 20 min at room temperature. The reaction was optionally stopped with 25 μL of Stop Solution (Sigma S5689). Plates were read by colorimetric detection at 650 nm wavelength using a Tecan Safire II plate reader.

Test [3] addresses T3, Recombinant human integrin αvβ5 (Homo sapiens, UniProt P06756+P18084).
T3 construct: purchased R&D Systems 2528-AV
Nature of the test: Solid Phase Receptor Assay for αvβ5 Function. As to conditions: binding to vitronectin-coated plate; read-out: αvβ5 SPRA IC50. As to the method:
Solid Phase Receptor Assay for αvβ5 Function.
as §1, with “150 μL TBS+ and 150” for “150 μL TBS+, and 150”, “at 37° C. and then” for “at 37° C., and then”, “the washed vitronectin-coated plate according” for “the washed LAP-coated plate according”, “TBS+/0.1% BSA at 0.5 μg/mL were added” for “TBS+/0.1% BSA were added”, “the plate covered and” for “the plate was covered and”, “peroxidase (R&D Systems DY998) diluted” for “peroxidase (R&D Systems, DY998) diluted”

T3 sequence (P06756 31-992 limits assumed): as the sequence (P06756 31-992 limits assumed) above
T3 sequence (P18084 24-719 limits assumed): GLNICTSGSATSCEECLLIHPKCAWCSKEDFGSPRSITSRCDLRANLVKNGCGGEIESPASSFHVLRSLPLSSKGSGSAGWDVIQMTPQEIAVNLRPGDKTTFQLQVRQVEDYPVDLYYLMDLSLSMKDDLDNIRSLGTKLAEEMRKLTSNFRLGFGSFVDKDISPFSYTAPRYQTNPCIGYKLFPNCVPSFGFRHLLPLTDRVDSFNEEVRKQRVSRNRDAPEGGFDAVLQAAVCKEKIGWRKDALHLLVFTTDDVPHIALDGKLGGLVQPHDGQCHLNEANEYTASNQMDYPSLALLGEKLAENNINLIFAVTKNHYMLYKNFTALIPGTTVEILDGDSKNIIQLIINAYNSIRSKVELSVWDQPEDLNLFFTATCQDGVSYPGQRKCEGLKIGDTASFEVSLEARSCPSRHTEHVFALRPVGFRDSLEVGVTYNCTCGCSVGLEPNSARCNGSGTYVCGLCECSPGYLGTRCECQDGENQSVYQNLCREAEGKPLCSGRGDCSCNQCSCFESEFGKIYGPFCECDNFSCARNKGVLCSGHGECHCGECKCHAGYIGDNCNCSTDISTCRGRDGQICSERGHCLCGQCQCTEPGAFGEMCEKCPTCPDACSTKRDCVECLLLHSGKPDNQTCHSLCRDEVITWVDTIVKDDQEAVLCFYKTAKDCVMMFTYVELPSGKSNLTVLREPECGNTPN
T1 sequence (P08648 42-995 limits assumed): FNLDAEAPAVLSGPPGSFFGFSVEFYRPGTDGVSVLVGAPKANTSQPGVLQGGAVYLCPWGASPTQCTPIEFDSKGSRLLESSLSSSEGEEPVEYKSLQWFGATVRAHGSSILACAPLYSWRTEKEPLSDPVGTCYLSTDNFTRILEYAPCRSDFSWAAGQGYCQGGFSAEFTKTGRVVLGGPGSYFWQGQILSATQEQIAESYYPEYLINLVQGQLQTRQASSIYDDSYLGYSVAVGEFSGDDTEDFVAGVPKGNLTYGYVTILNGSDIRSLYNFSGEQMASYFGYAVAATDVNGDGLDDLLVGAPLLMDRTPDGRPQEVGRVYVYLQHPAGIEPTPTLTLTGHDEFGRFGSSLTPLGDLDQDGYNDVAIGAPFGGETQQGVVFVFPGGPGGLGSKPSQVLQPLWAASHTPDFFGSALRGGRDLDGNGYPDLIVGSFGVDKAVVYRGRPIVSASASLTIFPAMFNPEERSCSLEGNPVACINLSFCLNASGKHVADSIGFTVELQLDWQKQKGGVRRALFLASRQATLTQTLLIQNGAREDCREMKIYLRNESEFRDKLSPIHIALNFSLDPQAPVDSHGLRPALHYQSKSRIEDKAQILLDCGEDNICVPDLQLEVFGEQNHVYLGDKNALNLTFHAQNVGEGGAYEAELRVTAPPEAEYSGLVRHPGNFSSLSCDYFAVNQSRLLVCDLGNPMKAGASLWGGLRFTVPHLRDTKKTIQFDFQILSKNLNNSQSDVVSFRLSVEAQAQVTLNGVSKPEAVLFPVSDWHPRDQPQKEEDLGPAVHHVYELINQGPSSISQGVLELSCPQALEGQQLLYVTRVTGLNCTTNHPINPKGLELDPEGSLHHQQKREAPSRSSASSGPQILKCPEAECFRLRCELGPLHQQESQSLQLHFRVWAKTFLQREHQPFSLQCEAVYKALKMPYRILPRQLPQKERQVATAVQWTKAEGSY
T1 sequence (P05556 21-728 limits assumed): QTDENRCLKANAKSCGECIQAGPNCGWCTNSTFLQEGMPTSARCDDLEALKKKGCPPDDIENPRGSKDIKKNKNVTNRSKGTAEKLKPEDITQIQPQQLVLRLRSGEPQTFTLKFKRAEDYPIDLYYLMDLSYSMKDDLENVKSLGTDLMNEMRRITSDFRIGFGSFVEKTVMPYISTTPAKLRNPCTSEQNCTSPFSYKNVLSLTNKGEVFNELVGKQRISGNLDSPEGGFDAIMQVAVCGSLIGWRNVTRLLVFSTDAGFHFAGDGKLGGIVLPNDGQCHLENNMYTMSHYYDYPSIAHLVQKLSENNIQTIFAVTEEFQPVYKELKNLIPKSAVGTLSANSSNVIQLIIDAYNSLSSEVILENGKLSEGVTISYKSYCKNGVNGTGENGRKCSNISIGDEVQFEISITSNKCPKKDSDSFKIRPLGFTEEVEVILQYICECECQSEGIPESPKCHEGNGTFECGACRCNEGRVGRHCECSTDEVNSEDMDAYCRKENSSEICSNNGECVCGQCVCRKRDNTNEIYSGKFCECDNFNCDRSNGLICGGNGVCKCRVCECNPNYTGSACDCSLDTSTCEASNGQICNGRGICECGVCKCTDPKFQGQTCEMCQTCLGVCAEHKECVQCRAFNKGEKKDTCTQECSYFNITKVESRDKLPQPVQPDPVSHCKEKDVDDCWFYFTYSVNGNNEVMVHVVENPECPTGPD

For `CC(O)(c1cc([C@H](CC(=O)O)NC(=O)CNC(=O)c2cc(O)cc(NC3=NCC(O)CN3)c2)cc(C(F)(F)F)c1)C(F)(F)F` (stereo partly drawn) [Example 25, (3S)-3-(2-(3-hydroxy-5-((5-hydroxy-1,4,5,6-tetrahydropyrimidin-2-yl)amino)benzamido)acetamido)-3-(3-(1,1,1-trifluoro-2-hydroxypropan-2-yl)-5-(trifluoromethyl)phenyl)propanoic acid], the IC50 in test [1] is 0.4 nM; in test [2], 0.4 nM; in test [3] it was 1.3 nM.

With `CC(O)(c1cc(Cl)cc([C@H](CC(=O)O)NC(=O)CNC(=O)c2cc(O)cc(NC3=NCC(O)CN3)c2)c1)C(F)(F)F` (stereo partly drawn) [Example 23, (3S)-3-(3-chloro-5-(1,1,1-trifluoro-2-hydroxypropan-2-yl)phenyl)-3-(2-(3-hydroxy-5-((5-hydroxy-1,4,5,6-tetrahydropyrimidin-2-yl)amino)benzamido)acetamido)propanoic acid], the figures for the IC50 in test [1], in test [2] and in test [3] were 0.3 nM, 0.4 nM and 0.5 nM, respectively.

As to `CC(C)(c1cc(Cl)cc([C@H](CC(=O)O)NC(=O)CNC(=O)c2cc(O)cc(NC3=NCC(O)CN3)c2)c1)C(F)(F)F` (stereo partly drawn) [Example 24, (3S)-3-(3-chloro-5-(1,1,1-trifluoro-2-methylpropan-2-yl)phenyl)-3-(2-(3-hydroxy-5-((5-hydroxy-1,4,5,6-tetrahydropyrimidin-2-yl)amino)benzamido)acetamido)propanoic acid], the IC50 came out at 0.3 nM in test [1], 0.4 nM in test [2] and 0.3 nM in test [3].

Turning to `N#CC1(c2cc(Cl)cc([C@H](CC(=O)O)NC(=O)CNC(=O)c3cc(O)cc(NC4=NCC(O)CN4)c3)c2)CCOCC1` (stereo partly drawn) [Example 22, (3S)-3-(3-chloro-5-(4-cyanotetrahydro-2H-pyran-4-yl)phenyl)-3-(2-(3-hydroxy-5-((5-hydroxy-1,4,5,6-tetrahydropyrimidin-2-yl)amino)benzamido)acetamido)propanoic acid], the figures for the IC50 in test [1], in test [2] and in test [3] were 0.3 nM, 0.3 nM and 0.4 nM, respectively.

For the molecule `N#CC1(c2cc(Cl)cc([C@H](CC(=O)O)NC(=O)CNC(=O)c3cc(O)cc(NC4=NCC(O)CN4)c3)c2)CCC1` (stereo partly drawn) [Example 21, (3S)-3-(3-chloro-5-(1-cyanocyclobutyl)phenyl)-3-(2-(3-hydroxy-5-((5-hydroxy-1,4,5,6-tetrahydropyrimidin-2-yl)amino)benzamido)acetamido)propanoic acid], the IC50 in test [1] worked out at 0.3 nM; in test [2] it was 0.3 nM; in test [3], 0.4 nM.

For `O=C(O)C[C@H](NC(=O)CNC(=O)c1cc(O)cc(NC2=NCC(O)CN2)c1)c1cc(Br)cc(C2(C(F)F)CC2)c1` (stereo partly drawn) [Example 26, (3S)-3-(3-bromo-5-(1-(difluoromethyl)cyclopropyl)phenyl)-3-(2-(3-hydroxy-5-((5-hydroxy-1,4,5,6-tetrahydropyrimidin-2-yl)amino)benzamido)acetamido)propanoic acid], the IC50 in test [1] worked out at 0.1 nM; in test [2], 0.1 nM; in test [3], 0.5 nM.
